Assay results published in patent EP2397471A1, “Benzimidazole compounds and their use” (China Medical University, priority 2010, dated 2011).

Tests used:
PC-3 cells [1] = experiment: In situ tubulin assay (immunofluorescence microscopy); assay type: cell-based; settings: 18 to 24 h
Experimental: The organization and formation of microtubule were detected by immunofluorescence microscopic examination in PC-3 cells.
PC-3 cells were seeded in 8-well chamber slides and incubated with a vehicle (0.1% DMSO, control), Compound 55 (10 µM), taxol (0.1 µM), or vincristine (0.1 µM) for 18 to 24 h. Then, the cells were fixed with 100 % methanol at -20°C for 5 min and incubated in 1 % bovine serum albumin (BSA) containing 0.1 % Triton X-100 at 37°C for 30 min. Cells were then washed twice with PBS for 5min and stained with primary antibody specific to β-tubulin at 37°C for 1 h. Afterwards, FITC-labeled secondary antibodies were used (staining performed at 37°C for 40 min, green fluorescence) and the protein was detected using a confocal laser microscopic system (Leica TCS SP2). The nuclei were visible by DAPI staining (1 mg/mL DAPI, blue fluorescence).

[2] = tested on: Cyclin E, Cyclin A, Cyclin B1, Cdk1, Cdk2, p27, MPM2; experiment: Western blot analysis of cell-cycle regulators; assay type: cell-based; settings: PC-3 cells; 10 µM
Experimental: (§1) PC-3 cells were incubated with a vehicle (0.1% DMSO) as control or Coumpound 55 (10 µM) for 30 min, 45 min, 60 min, and 120 min for testing Ras; or for 6 hrs, 12 hrs, 18 hrs, and 24 hrs for testing Raf-1, Phospho-MEK, MEK, and GAPDH. After the treatment, cells were washed twice with ice-cold PBS and then lysed with 100 µL lysis buffer (20 mM Tris, pH 7.5, 1 mM MgCl2, 125 mM NaCl, 1% Triton X-100, 1 mM phenylmethylsulphonylfluoride, 10 µg/mL leupeptin, 10 µg/mL aprotinin, 25 mM β-glycerophosphate, 50 mM NaF, and 100 µM sodium orthovanadate). Then, the expressions of the above proteins were detected by Western blotting.
The cell-cycle regulators were also examined by Western blot analysis. Proteins in the lysis (40 µg) were separated by electrophoresis in a 10 or 15% polyacrylamide gel, transferred to a nitrocellulose membrane and immuno-reacted with respective antibodies against Cyclin E, Cyclin A, Cyclin B1, Cdk1, Cdk2, p27, MPM2, and GAPDH.

PC-3 cells [3] = experiment: FACScan flow cytometric analysis of cell cycle progression; assay type: cell-based; settings: 1 µM, 3 µM, and 10 µM, 0 hr to 48 hrs
Experimental: PC-3 cells were treated with Compound 55 (at different concentrations: 1 µM, 3 µM, and 10 µM) for 0 hr, 6 hrs, 12 hrs, 18 hrs, 24 hrs, 36 hrs, and 48 hrs. After treatment, cells were washed twice with ice-cold PBS, collected by centrifugation and fixed in 70% (v/v) ethanol at 4°C for 30 min. Then, cells were treated with 0.2 ml of a buffer (containing 0.2 M Na2HPO4 and 0.1 M citric acid buffer, pH 7.8) for 30 min, centrifuged, and then incubated in 1 mL propidium iodide (PI) staining buffer (0.1 % Triton X-100, 100 µg/mL RNase A, 80 µg/mL propidium iodide in PBS) at 37°C for 30 min. Cells were detected using a cytofluorometer, and analyzed by FACScan and CellQuest program (Becton Dickinson).

Tubulin proteins = experiment: In vitro tubulin turbidity assay; assay type: biochemical; settings: absorbance at 340 nm, 37°C, 60 min
Experimental: Effects of the benzimidazole compounds on tubulin polymerization were detected using CytoDYNAMIX Screen 03 kit (Cytoskeleton, Inc., Denver, CO).
Tubulin proteins (> 99% purity) were suspended in G-PEM buffer containing 80 mM PIPES, 2 mM MgCl2, 0.5 mM […], and 1.0 mM GTP (pH 6.9) and 5% glycerol with or without a test compound. Then, the mixture was transferred to a 96-well plate and the absorbance was measured at 340 nm (37°C) for 60 min (SpectraMAX Plus, Molecular Devices Inc., Sunnyvale, CA).
Level oftubulin polymerization was determined by examining turbidity of the tubulin suspension. Absorbance of the suspension at 340 nm was plotted as a function of time. Accordingly, the velocity and magnitude of tubulin polymerization were determined.

Ras, Raf-1, and MEK = experiment: Western blotting of Ras, Raf-1, MEK; assay type: cell-based; settings: PC-3 cells; 10 µM; 30-120 min for Ras, 6-24 hrs for Raf-1, MEK
Experimental: as §1

[4] = tested on: Bcl-2 family member proteins, caspases; experiment: Western blot analysis of Bcl-2 family member proteins and caspases (apoptosis); assay type: cell-based; settings: PC-3 cells; 10 µM; 0 hr to 36 hrs
Experimental: Effect of benzimidazole compounds on inducing apoptosis was evaluated by testing their effect on the expression/activation of Bcl-2 family member proteins, caspases, and c-Jun N-terminal kinase (JNK). Bcl-2 family of proteins is the most important regulators of mitochondria-involved apoptotic cell death. The pro-apoptotic members, Bax, Bak and Bad, are required for the disruption of mitochondria; whereas the anti-apoptotic Bcl-2, Bcl-xL and Mcl-1 can prevent apoptosis by antagonizing the pro-apoptotic members.
PC-3 cells were incubated with a vehicle (0.1% DMSO) or Compound 55 (10 µM) for 0 hr, 6 hrs, 12 hrs, 18 hrs, 24 hrs, and 36 hrs. Then, the cells were harvested and lysed for the detection of protein expression with specific antibodies by western blot analysis. For Western blotting, the proteins (40 µg) in the lysis (including Phospho-Bcl-2, Bcl-2, Phospho-Bcl-xL, Bcl-xL, Mcl-1, Bax, Bak, Bad, GAPDH, cleaved Bad, Caspase-9, cleaved Caspase-9, Caspase-3, cleaved Caspase-3, poly-(ADP-ribose) polymerase (PARP), cleaved PARP, and GAPDH) were separated by electrophoresis in a 10 to 15% polyacrylamide gel, transferred to a nitrocellulose membrane and immuno-reacted with specific antibodies.

Structure (SMILES) | spindles and nuclei, in situ labeling of tubulin and chromosomes (PC-3 cells [1]; 10 µM) | expression of cyclin B1 [2] | expression of cyclin E and cyclin A [2] | cell population at G2/M phase (PC-3 cells [3]) | hypodiploid (sub-G1, apoptosis) population of the cell cycle (PC-3 cells [3]) | tubulin polymerization (Tubulin proteins) | expression of Ras, Raf-1, and MEK (Ras, Raf-1, and MEK) | Mcl-1 expression [4] | cleavage of caspase-9, caspase-3 and PARP [4] | phosphorylation and degradation of Bcl-2 and Bcl-xL [4] | spindles and nuclei, in situ labeling of tubulin and chromosomes (PC-3 cells [1]; 0.1 µM)
COc1cc(Cn2c(-c3ccccc3)nc3cc(N4CCCC4)ccc32)cc(OC)c1OC [Compound 55, 2-phenyl-5-(pyrrolidin-1-yl)-1-(3,4,5-trimethoxybenzyl)-1H benzo[d]imidazole] | mono-polar | upregulated cyclin B1 | downregulated cyclin E and cyclin A | increase of cell population at G2/M phase | subsequent increase of hypodiploid (sub-G1, apoptosis) population | inhibited tubulin polymerization in a dose-dependent manner | upregulated Ras, Raf-1, and MEK | decrease of Mcl-1 expression | cleaved to produce catalytically active fragments | induced the phosphorylation and degradation of Bcl-2 and Bcl-xL | 
CC(=O)O[C@H]1C(=O)[C@@]2(C)[C@H]([C@H](OC(=O)c3ccccc3)[C@]3(O)C[C@H](OC(=O)[C@H](O)[C@@H](NC(=O)c4ccccc4)c4ccccc4)C(C)=C1C3(C)C)[C@]1(OC(C)=O)CO[C@@H]1C[C@@H]2O [taxol] |  |  |  |  |  |  |  |  |  |  | multi-polar spindles and multiple nuclei were formed
CC[C@]1(O)C[C@H]2CN(CCc3c([nH]c4ccccc34)[C@@](C(=O)OC)(c3cc4c(cc3OC)N(C=O)[C@H]3[C@@](O)(C(=O)OC)[C@H](OC(C)=O)[C@]5(CC)C=CCN6CC[C@]43[C@@H]65)C2)C1 [vincristine] |  |  |  |  |  |  |  |  |  |  | multi-polar spindles and chromosome condensation were observed
